Results as given in ChEMBL document CHEMBL5257092, “Synthesis and biological evaluation of biaryl alkyl ethers as inhibitors of IDO1” (Bioorg Med Chem Lett, 2023).

Columns and labels:
Cytochrome P450 2C9 [1] = biological target: T1, Cytochrome P450 2C9 (Homo sapiens, UniProt P11712); test: Inhibition of CYP2C9 (unknown origin); assay type: ADME
[2] = biological target: Indoleamine 2,3-dioxygenase 1 (Homo sapiens, UniProt P14902); test: Inhibition of IDO1 (unknown origin) expressed in human HeLa cells; assay type: cell-based
Indoleamine 2,3-dioxygenase 1, sequence (P14902 whole entry): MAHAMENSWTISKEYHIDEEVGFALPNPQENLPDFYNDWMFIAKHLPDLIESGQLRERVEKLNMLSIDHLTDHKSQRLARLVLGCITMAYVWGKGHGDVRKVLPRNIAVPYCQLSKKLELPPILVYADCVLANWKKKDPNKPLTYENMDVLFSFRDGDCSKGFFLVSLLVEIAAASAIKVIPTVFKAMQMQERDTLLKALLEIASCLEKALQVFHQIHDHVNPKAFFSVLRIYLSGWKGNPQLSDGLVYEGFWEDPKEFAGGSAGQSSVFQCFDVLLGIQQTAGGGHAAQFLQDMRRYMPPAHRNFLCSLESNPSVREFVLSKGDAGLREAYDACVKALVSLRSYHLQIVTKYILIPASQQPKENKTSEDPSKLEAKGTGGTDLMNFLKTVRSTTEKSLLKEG

[3] = Metabolic stability in rat liver microsomes assessed as compound remaining at 0.5 uM incubated for 10 mins relative to control; assay type: ADME, Microsome; details: for remaining at 10 min, 0.5 µM: liver microsomes, read-out: Stability; for Stability: microsomes, 10 min, 0.5 µM
[4] = Metabolic stability in human liver microsomes assessed as compound remaining at 0.5 uM incubated for 10 mins relative to control; assay type: ADME, Microsome; details: for remaining at 10 min, 0.5 µM: liver microsomes, read-out: Stability
[5] = Metabolic stability in mouse liver microsomes assessed as compound remaining at 0.5 uM incubated for 10 mins relative to control; assay type: ADME, Microsome; details: for remaining at 10 min, 0.5 µM: liver microsomes, read-out: Stability
[6] = biological target: T2, Voltage-gated inwardly rectifying potassium channel KCNH2 (Homo sapiens, UniProt Q12809); test: Inhibition of hERG; assay type: toxicity
T2 sequence (Q12809 whole entry): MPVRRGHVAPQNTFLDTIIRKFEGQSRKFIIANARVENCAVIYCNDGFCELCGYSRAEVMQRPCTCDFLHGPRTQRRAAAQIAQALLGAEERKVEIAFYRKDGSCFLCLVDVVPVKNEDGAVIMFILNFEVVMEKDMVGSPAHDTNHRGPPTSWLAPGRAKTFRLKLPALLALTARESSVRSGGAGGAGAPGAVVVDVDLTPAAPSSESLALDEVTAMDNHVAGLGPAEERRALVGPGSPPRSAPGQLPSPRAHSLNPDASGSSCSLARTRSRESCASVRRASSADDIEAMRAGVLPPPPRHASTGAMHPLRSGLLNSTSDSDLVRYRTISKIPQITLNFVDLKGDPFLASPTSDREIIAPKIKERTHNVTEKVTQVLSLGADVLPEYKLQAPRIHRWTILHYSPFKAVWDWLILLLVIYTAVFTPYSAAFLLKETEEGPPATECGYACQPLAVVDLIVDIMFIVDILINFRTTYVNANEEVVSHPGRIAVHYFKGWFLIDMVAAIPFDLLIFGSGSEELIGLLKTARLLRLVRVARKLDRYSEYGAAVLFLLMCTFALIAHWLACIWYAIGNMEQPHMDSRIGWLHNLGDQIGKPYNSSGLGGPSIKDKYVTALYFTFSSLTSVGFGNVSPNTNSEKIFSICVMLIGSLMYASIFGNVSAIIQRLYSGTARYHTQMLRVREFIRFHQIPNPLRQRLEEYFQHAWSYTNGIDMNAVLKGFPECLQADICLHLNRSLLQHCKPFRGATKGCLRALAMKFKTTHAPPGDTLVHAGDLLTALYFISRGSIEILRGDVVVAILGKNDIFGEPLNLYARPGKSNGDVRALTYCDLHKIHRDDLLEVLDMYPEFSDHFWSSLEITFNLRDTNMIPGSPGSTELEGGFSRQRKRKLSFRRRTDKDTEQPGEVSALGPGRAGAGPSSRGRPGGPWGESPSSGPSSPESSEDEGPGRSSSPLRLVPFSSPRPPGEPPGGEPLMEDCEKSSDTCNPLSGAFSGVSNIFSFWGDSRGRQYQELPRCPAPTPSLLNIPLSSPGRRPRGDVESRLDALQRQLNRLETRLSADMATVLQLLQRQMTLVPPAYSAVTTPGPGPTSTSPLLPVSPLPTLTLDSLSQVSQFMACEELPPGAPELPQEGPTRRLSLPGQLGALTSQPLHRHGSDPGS

[7] = biological target: Tryptophan 2,3-dioxygenase (Homo sapiens, UniProt P48775); test: Inhibition of TDO (unknown origin) expressed in HEK cells; assay type: cell-based
Tryptophan 2,3-dioxygenase, sequence (P48775 whole entry): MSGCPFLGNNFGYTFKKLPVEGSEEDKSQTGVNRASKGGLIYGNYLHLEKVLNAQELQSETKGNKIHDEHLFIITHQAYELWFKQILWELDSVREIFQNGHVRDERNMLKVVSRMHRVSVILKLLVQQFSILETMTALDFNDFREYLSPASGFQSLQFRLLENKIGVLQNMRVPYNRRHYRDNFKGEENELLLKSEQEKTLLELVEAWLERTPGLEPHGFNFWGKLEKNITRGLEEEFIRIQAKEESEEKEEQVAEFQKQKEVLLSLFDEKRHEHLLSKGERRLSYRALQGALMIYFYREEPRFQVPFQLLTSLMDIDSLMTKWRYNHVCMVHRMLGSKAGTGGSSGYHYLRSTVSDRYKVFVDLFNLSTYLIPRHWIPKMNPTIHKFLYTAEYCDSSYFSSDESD

[8] = biological target: T2, Voltage-gated inwardly rectifying potassium channel KCNH2; test: (§1) Inhibition of hERG at 10 uM relative to control; assay type: toxicity; details: 10 µM
[9] = biological target: T3, Nuclear receptor subfamily 1 group I member 2 (Homo sapiens, UniProt O75469); test: Transactivation of PXR (unknown origin); assay type: toxicity
T3 sequence (O75469 whole entry): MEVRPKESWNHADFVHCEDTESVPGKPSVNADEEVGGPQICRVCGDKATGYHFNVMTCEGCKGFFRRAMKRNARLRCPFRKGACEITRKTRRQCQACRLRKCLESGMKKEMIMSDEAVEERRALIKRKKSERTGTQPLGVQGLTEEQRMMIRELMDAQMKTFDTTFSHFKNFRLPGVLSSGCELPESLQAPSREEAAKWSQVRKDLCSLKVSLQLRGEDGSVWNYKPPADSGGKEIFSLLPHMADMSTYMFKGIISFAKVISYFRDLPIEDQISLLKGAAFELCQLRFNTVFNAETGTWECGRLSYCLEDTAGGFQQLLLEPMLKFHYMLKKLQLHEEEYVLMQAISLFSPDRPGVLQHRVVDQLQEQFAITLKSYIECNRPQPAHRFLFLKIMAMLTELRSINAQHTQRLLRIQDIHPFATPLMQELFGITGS

Cytochrome P450 2C8 [10] = biological target: T4, Cytochrome P450 2C8 (Homo sapiens, UniProt P10632); test: Inhibition of CYP2C8 (unknown origin); assay type: ADME
T4 sequence (P10632 whole entry): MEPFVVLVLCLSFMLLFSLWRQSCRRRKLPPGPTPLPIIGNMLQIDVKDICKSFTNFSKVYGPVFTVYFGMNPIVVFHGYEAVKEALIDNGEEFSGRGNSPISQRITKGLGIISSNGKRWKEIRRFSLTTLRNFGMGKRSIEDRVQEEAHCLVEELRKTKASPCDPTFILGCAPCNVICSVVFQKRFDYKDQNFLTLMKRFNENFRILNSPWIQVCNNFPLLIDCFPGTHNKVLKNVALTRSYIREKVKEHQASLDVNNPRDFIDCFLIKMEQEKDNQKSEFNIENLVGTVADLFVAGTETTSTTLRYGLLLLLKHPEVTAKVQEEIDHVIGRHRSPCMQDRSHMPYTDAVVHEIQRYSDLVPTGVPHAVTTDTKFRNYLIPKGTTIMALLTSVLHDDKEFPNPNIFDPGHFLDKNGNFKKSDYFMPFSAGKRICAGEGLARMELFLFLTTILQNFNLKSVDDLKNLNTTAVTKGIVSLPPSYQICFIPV

[11] = Stability in monkey liver microsomes assessed as half life; assay type: ADME, Macaca mulatta, Microsome; details: rhesus monkey
Cytochrome P450 2D6 = Cytochrome P450 2D6 (Homo sapiens, UniProt P10635); test: Inhibition of human CYP2D6; assay type: ADME
Cytochrome P450 2D6, sequence (P10635 whole entry): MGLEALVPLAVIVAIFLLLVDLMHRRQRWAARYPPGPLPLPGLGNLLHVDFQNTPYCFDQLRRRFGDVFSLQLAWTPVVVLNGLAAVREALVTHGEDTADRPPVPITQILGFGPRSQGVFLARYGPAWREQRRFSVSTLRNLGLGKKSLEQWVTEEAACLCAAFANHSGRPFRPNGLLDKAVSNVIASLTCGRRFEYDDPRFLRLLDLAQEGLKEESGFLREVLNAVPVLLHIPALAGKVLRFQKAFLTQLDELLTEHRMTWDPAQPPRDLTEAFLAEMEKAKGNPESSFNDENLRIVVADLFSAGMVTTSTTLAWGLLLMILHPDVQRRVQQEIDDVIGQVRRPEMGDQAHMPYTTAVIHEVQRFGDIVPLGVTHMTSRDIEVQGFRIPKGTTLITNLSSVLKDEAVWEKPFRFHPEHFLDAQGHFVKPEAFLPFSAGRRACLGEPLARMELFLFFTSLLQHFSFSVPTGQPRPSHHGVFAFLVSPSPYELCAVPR

Cytochrome P450 2C9 [12] = biological target: T1, Cytochrome P450 2C9; test: Inhibition of human CYP2C9; assay type: ADME
[13] = Stability in mouse liver microsomes assessed as half life; assay type: ADME, Microsome
Cytochrome P450 1A2 = biological target: T5, Cytochrome P450 1A2 (Homo sapiens, UniProt P05177); test: Inhibition of human CYP1A2; assay type: ADME
T5 sequence (P05177 whole entry): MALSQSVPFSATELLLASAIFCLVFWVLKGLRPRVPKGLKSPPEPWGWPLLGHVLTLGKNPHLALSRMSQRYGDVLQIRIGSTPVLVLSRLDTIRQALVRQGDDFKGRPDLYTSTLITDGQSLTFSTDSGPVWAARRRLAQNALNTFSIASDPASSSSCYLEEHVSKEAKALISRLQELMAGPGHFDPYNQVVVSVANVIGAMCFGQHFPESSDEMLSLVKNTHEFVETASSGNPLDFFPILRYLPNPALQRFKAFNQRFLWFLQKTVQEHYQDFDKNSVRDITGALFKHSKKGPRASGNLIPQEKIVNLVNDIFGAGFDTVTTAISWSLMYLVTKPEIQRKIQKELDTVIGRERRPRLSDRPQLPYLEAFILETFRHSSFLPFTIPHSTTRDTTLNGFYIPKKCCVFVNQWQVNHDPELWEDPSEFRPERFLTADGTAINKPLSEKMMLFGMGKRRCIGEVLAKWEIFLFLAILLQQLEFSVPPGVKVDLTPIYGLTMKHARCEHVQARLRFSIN

[14] = Stability in dog liver microsomes assessed as half life; assay type: ADME, Canis lupus familiaris, Microsome
Cytochrome P450 2C19 [15] = biological target: T6, Cytochrome P450 2C19 (Homo sapiens, UniProt P33261); test: Inhibition of human CYP2C19; assay type: ADME
T6 sequence (P33261 whole entry): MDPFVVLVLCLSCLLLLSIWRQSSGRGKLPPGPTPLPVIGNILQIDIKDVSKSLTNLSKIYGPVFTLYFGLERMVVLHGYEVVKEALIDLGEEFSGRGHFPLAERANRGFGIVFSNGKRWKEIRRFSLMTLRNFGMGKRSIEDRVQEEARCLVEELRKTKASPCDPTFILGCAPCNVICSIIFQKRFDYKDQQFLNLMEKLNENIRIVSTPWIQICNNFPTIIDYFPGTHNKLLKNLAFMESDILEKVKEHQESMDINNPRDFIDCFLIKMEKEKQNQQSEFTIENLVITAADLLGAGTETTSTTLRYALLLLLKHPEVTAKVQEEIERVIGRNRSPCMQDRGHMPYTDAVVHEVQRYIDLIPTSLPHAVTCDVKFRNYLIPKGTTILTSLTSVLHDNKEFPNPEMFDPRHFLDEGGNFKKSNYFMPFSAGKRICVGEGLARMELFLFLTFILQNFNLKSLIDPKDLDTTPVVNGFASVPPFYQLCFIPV

Cytochrome P450 3A4 = Cytochrome P450 3A4 (Homo sapiens, UniProt P08684); test: Inhibition of human CYP3A4; assay type: ADME
Cytochrome P450 3A4, sequence (P08684 whole entry): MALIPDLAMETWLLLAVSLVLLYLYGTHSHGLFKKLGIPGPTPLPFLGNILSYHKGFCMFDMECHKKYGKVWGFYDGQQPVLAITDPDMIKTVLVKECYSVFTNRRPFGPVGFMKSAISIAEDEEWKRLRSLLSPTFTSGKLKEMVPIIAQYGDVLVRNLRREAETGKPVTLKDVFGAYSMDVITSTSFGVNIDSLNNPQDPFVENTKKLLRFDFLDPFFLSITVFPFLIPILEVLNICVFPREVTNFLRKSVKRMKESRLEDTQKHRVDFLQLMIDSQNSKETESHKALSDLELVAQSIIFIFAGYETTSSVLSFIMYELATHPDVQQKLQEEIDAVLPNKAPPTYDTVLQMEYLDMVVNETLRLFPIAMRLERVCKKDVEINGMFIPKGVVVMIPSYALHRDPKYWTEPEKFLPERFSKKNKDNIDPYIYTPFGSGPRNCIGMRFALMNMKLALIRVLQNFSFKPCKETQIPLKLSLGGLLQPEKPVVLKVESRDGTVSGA

Cytochrome P450 2C8 [16] = biological target: T4, Cytochrome P450 2C8; test: Inhibition of human CYP2C8; assay type: ADME
Cytochrome P450 2B6 = biological target: T7, Cytochrome P450 2B6 (Homo sapiens, UniProt P20813); test: Inhibition of human CYP2B6; assay type: ADME
T7 sequence (P20813 whole entry): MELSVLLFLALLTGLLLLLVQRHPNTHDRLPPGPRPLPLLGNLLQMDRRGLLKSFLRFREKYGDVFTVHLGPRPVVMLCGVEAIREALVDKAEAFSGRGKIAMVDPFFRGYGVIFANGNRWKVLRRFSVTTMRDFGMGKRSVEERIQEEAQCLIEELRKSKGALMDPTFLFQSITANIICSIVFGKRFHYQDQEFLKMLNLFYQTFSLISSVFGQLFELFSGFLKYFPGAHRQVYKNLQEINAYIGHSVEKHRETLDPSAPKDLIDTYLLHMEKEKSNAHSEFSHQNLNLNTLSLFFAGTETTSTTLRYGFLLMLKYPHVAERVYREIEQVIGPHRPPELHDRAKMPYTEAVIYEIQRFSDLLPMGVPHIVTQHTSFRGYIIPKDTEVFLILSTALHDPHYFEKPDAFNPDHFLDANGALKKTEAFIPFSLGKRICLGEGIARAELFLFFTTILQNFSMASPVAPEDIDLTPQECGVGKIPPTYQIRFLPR

[17] = Stability in human liver microsomes assessed as half life; assay type: ADME, Microsome
[18] = Stability in rat liver microsomes assessed as half life; assay type: ADME, Microsome
Cytochrome P450 2C19 [19] = biological target: T6, Cytochrome P450 2C19; test: Inhibition of CYP2C19 (unknown origin); assay type: ADME
hERG = hERG (Homo sapiens, UniProt Q12809); test: as §1; assay type: toxicity

T1 sequence (P11712 whole entry): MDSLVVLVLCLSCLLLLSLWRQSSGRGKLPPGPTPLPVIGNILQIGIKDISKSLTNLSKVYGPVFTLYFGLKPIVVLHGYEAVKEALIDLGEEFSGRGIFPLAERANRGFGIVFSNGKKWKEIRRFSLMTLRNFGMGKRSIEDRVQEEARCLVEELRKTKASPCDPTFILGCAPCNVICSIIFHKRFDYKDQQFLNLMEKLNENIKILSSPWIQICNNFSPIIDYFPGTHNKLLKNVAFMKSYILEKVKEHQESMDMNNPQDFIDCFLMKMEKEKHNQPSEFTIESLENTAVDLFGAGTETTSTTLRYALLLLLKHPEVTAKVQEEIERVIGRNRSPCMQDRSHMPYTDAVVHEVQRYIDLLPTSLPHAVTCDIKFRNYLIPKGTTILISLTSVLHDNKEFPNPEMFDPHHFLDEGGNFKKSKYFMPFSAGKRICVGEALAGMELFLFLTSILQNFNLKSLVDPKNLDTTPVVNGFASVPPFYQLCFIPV

| SMILES | IC50 (Cytochrome P450 2C9 [1]) [µM] | IC50 [2] [µM] | remaining at 10 min, 0.5 µM [3] [%] | remaining at 10 min, 0.5 µM [4] [%] | remaining at 10 min, 0.5 µM [5] [%] | IC50 [6] [µM] | IC50 [7] [µM] | further results |
| --- | --- | --- | --- | --- | --- | --- | --- | --- |
| C=C[C@@H]1Oc2c(NC(=O)Nc3ccc(C)cc3)cc(-c3ccccc3-c3nn[nH]n3)cc2[C@@H]1c1ccccc1 (racemic) | 0.97 | 0.0059 | 77 | 82 | 57 | – | – | – |
| Cc1ccc(NC(=O)Nc2cc(-c3ccccc3-c3nn[nH]n3)ccc2OC(C(C)C)C(C)C)cc1 | 1.4 | – | 48 | 41 | 2 | 18 | – | – |
| COc1ccc(-c2ccc(OC(C(C)C)C(C)C)c(NC(=O)Nc3ccc(C)cc3)c2)cc1C(=O)O | – | 1.6 | – | – | – | – | – | – |
| COc1ccc(-c2ccc(O[C@@H]3CCCC[C@H]3C)c(NC(=O)Nc3ccc(C)cc3)c2)cc1C(=O)O (racemic) | – | > 1 | – | – | – | – | – | – |
| Cc1ccc(NC(=O)Nc2cc(-c3ccccc3-c3nn[nH]n3)cc3c2OCCCC3c2ccccc2)cc1 (stereo in doubt; 22) | 6.8 | 0.015 | – | – | – | – | – | IC50 ([7]; hek): > 6 µM; Stability [3]: 96%; inhibition (INH) [8]: 53%; Stability ([4]; microsomes, 10 min, 0.5 µM): 72%; Stability ([5]; microsomes, 10 min, 0.5 µM): 100% |
| CCCOc1c(CCC)cc(-c2ccccc2-c2nn[nH]n2)cc1NC(=O)Nc1ccc(C)cc1 | 6.2 | 0.031 | 86 | 82 | 68 | 40 | – | EC50 [9]: > 9 µM |
| Cc1ccc(NC(=O)Nc2cc(-c3ccccc3-c3nn[nH]n3)cc3c2OCC=CC3c2ccccc2)cc1 (racemic) | 2.8 | 0.011 | 66 | 69 | 68 | 69 | – | – |
| CCCC(CCC)Oc1ccc(-c2ccccc2-c2nn[nH]n2)cc1NC(=O)Nc1ccc(C)cc1 | 1.8 | 0.025 | 76 | 62 | 47 | > 80 | – | – |
| Cc1ccc(NC(=O)Nc2cc(-c3ccccc3-c3nn[nH]n3)cc3c2O[C@@H](C)CCC[C@H]3c2ccccc2)cc1 | – | 0.025 | 74 | 100 | 66 | – | – | IC50 (Cytochrome P450 2C8 [10]): 3.2 µM |
| COc1ccc(-c2ccc(Oc3ccccc3C(C)(C)C)c(NC(=O)Nc3ccccc3F)c2)cc1C(=O)O | – | – | 100 | 100 | 61 | – | > 7.5 | IC50 (Cytochrome P450 2C8 [10]): 5.1 µM |
| C=CC1(C=C)Oc2c(NC(=O)Nc3ccc(C)cc3)cc(-c3ccccc3-c3nn[nH]n3)cc2[C@@H]1c1ccccc1 | – | 0.0034 | 86 | 94 | 77 | > 80 | > 7.5 | IC50 (Cytochrome P450 2C8 [10]): 0.27 µM |
| Cc1ccc(NC(=O)Nc2cc(-c3ccccc3-c3nn[nH]n3)cc3c2O[C@@H](C)C/C=C\[C@H]3c2ccccc2)cc1 | – | 0.012 | 61 | 94 | 76 | – | – | IC50 (Cytochrome P450 2C8 [10]): 1.9 µM |
| Cc1ccc(NC(=O)Nc2cc(-c3ccccc3-c3nnn[nH]3)ccc2N(CC(C)C)CC(C)C)cc1 | 2.7 | 0.007 | 60 | 37 | 33 | – | > 7.5 | half-life [11]: 4 min; IC50 (Cytochrome P450 2D6): 18 µM; IC50 (Cytochrome P450 2C9 [12]): 2.7 µM; half-life [13]: 6.6 min; IC50 (Cytochrome P450 1A2): 9.5 µM; half-life [14]: 11 min; IC50 (Cytochrome P450 2C19 [15]): 8.7 µM; IC50 (Cytochrome P450 3A4): 7.8 µM; IC50 (Cytochrome P450 2C8 [16]): 9.2 µM; IC50 (Cytochrome P450 2B6): 19 µM; half-life [17]: 9.1 min; half-life [18]: 22 min |
| Cc1ccc(NC(=O)Nc2cc(-c3ccccc3-c3nc(=O)[nH]o3)cc3c2OCCCC3c2ccccc2)cc1 (stereo in doubt; 19) | – | 0.0015 | – | 72 | 56 | – | > 6 | IC50 (Cytochrome P450 2C19 [19]): 1.2 µM; Stability [3]: 61%; inhibition at 10 µM (hERG): 12% |
| Cc1ccc(NC(=O)Nc2cc(-c3ccccc3-c3nn[nH]n3)cc3c2OCCCC3c2ccccc2)cc1 (stereo in doubt; 21) | 3.7 | 0.0036 | 92 | 70 | 84 | – | > 6 | half-life [11]: 7.4 min; IC50 (Cytochrome P450 2D6): > 20 µM; IC50 (Cytochrome P450 2C9 [12]): 3.7 µM; half-life [13]: 25 min; IC50 (Cytochrome P450 1A2): > 20 µM; half-life [14]: 22 min; IC50 (Cytochrome P450 2C19 [15]): 6.7 µM; IC50 (Cytochrome P450 3A4): 8.4 µM; IC50 (Cytochrome P450 2C8 [16]): 18 µM; inhibition at 10 µM (hERG): 41%; IC50 (Cytochrome P450 2B6): 17 µM; half-life [17]: 18 min; half-life [18]: 54 min |
| Cc1ccc(NC(=O)Nc2cc(-c3ccccc3C(=O)O)ccc2O[C@@H]2CCCC[C@H]2C)cc1 (racemic) | – | 0.24 | – | – | – | – | – | – |
| CC(C)CN(CC(C)C)c1ccc(-c2ccccc2C(=O)O)cc1NC(=O)Nc1ccccc1F | 5.1 | 0.013 | 72 | 75 | 81 | – | – | – |
| Cc1ccc(NC(=O)Nc2cc(-c3ccccc3-c3nn[nH]n3)cc3c2OC(C)(C)[C@H]3c2ccccc2)cc1 (racemic) | – | 0.0063 | 73 | 52 | 42 | – | – | IC50 (Cytochrome P450 2C19 [19]): 0.42 µM |
| C=C[C@H]1Oc2c(NC(=O)Nc3ccc(C)cc3)cc(-c3ccccc3-c3nnn[nH]3)cc2[C@@H]1c1ccccc1 (racemic) | – | 0.012 | 88 | 78 | 75 | – | > 7.5 | IC50 (Cytochrome P450 2C8 [10]): 1 µM |
| CCCOc1c(CCC)cc(-c2ccccc2C(=O)O)cc1NC(=O)Nc1ccc(C)cc1 | 14 | – | 85 | 100 | 82 | > 80 | – | EC50 [9]: > 20 µM |
